Results: patent publication US7973083B2, “Pesticidally active compounds” (priority 2003, dated 2011)

Assays:
Assay type in all cases: in vivo
Sweet Corn ‘Jubilee SS = experiment: Field test, sweet corn phytotoxicity after herbicide with or without insecticide (Table I); conditions: scale 0-100
Description: (§1) Field tests were conducted in the following way: Corn was seeded with standard sowing implements and grown under natural conditions until the 2-3 leaf stage of corn was reached. Corn with or without insecticide treatments applied at seeding was grown at the same time. At 2-3 leaf stage, the herbicides only or in combination with the insecticide, if the insecticide has not been applied at seeding, was applied broadcast foliar over the top. At highest phytotoxicity levels for corn at five days after application and at maximal weed control levels at 16 days after application, the trial was evaluated.

Corn ‘NK58D1 = experiment: Field test, corn phytotoxicity after herbicide with or without insecticide (Table I); conditions: scale 0-100
Description: as §1

Amaranthus retroflexus = experiment: Field test, weed control (Table I); conditions: scale 0-100
Description: as §1

Solanum Nigrum [1] = experiment: Glasshouse test, insecticide and herbicide tank-mixed post emergent, weed control (Table 3); conditions: no insecticide, 34 days after last application
From the text: (§2) Insecticide and Herbicide Applied Tank-Mixed Post Emergent
(§3) Prior to the planting of corn and weed, the substrate was filled into plastic pots. Crop and weed were planted following this procedure and grown under standard glasshouse conditions allowing optimal plant growth until 2-3 leaf stage. Then the herbicides were applied according the rates indicated in the results table post emergent foliar over the top including standard adjuvants. The plants were visually evaluated on a scale of 0-100% wherein 0% indicated no phytotoxicity and 100% indicated full control or death. 0-15% indicates acceptable crop tolerance, 85-100% acceptable weed control. The evaluation was done at the time when maximal phytotoxicity or activity occurred.

Corn Cecilia = experiment: Glasshouse test, insecticide pre-plant incorporated followed by post application of herbicide, corn phytotoxicity (Table 2); conditions: no insecticide, 20 days after last application
From the text: (§4) Insecticide Pre-Plant Incorporated Followed by Post Application of the Herbicide
as §3, with “pots and the different insecticides were applied with glasshouse spray equipment on bare soil at rates indicated in the results table. After the insecticide application, the substrate in the pots was mixed up in order to get an even distribution of the insecticide throughout the pot” for “pots.”, “according to” for “according”

Solanum Nigrum [2] = experiment: Glasshouse test, insecticide pre-plant incorporated followed by post application of herbicide, weed control (Table 2); conditions: no insecticide, 43 days after last application
From the text: as §4
as §3, with “pots and the different insecticides were applied with glasshouse spray equipment on bare soil at rates indicated in the results table. After the insecticide application, the substrate in the pots was mixed up in order to get an even distribution of the insecticide throughout the pot” for “pots.”, “according to” for “according”

Corn Sweet honeycomb = experiment: Glasshouse test, insecticide and herbicide tank-mixed post emergent, corn phytotoxicity (Table 3); conditions: no insecticide, 8 days after last application
From the text: as §2, §3

[3] = insecticide alone, in furrow at seeding 11.2 GA/100 Row M, 5 days
[4] = insecticide alone, post 1120 GA/Ha, 5 days
[5] = insecticide alone, in furrow at seeding 11.2 GA/100 Row M, 16 days
[6] = herbicide post 400 GA/Ha, scale 0-100
[7] = herbicide post, mesotrione 210 GA/Ha (a.e. for Cu), no insecticide, 5 days after last application

Molecule `CCOP(=S)(OCC)Oc1nc(Cl)c(Cl)cc1Cl` [Chlorpyrifos] has a Phytotox. (Sweet Corn ‘Jubilee SS; [3]) of 0%, a Phytotox. (Sweet Corn ‘Jubilee SS; [4]) of 0% and a Phytotox. (Corn ‘NK58D1; [3]) of 0%. The Phytotox. (Corn ‘NK58D1; [4]) was 0%, the “Weed Control” value (Amaranthus retroflexus; [5]) was 0% and the “Weed Control” value (Amaranthus retroflexus; insecticide alone, post 1120 GA/Ha, 16 days) was 0%.
With `CS(=O)(=O)c1ccc(C(=O)C2C(=O)CCCC2=O)c([N+](=O)[O-])c1` [Mesotrione, 2-(2′-nitro-4′-methylsulphonylbenzoyl)-1,3-cyclohexanedione] the “Weed Control” value (Solanum Nigrum [1]; herbicide post 100 GA/Ha) was 100%, the “Weed Control” value (Solanum Nigrum [1]; herbicide post 200 GA/Ha) was 100% and the “Weed Control” value (Solanum Nigrum [1]; [6]) was 100%. It also gave a Phytotox. (Sweet Corn ‘Jubilee SS; herbicide post, mesotrione 105 GA/Ha (a.e. for Cu), no insecticide, 5 days after last application) of 16.3%, a Phytotox. (Sweet Corn ‘Jubilee SS; [7]) of 15% and a Phytotox. (Corn ‘NK58D1; herbicide post, mesotrione 105 GA/Ha (a.e. for Cu), no insecticide, 5 days after last application, COC 1% V/V + UAN 2.5% V/V) of 3.8%. For the same molecule, the Phytotox. (Corn ‘NK58D1; [7]) was 8.8%, the Phytotox. (Corn Cecilia; herbicide post 100 GA/Ha) was 5% and the Phytotox. (Corn Cecilia; herbicide post 200 GA/Ha) was 0%. For the same molecule, the Phytotox. (Corn Cecilia; [6]) was 0%, the “Weed Control” value (Solanum Nigrum [2]; herbicide post 100 GA/Ha) was 98% and the “Weed Control” value (Solanum Nigrum [2]; herbicide post 200 GA/Ha) was 100%. For the same molecule, the “Weed Control” value (Solanum Nigrum [2]; [6]) was 0%, the Phytotox. (Corn Sweet honeycomb; herbicide post 100 GA/Ha) was 10% and the Phytotox. (Corn Sweet honeycomb; herbicide post 200 GA/Ha) was 20%. The Phytotox. (Corn Sweet honeycomb; [6]) was 20%, the “Weed Control” value (Amaranthus retroflexus; herbicide post, mesotrione 105 GA/Ha (a.e. for Cu), no insecticide, 16 days after last application) was 90% and the “Weed Control” value (Amaranthus retroflexus; herbicide post, mesotrione 210 GA/Ha (a.e. for Cu), no insecticide, 16 days after last application) was 95%.
`CCOP(=S)(OCC)SCSC(C)(C)C` [Terbufos] was tested, and the Phytotox. (Sweet Corn ‘Jubilee SS; [3]) was 0%, the Phytotox. (Corn ‘NK58D1; [3]) was 0% and the “Weed Control” value (Amaranthus retroflexus; [5]) was 0%.
